{
  "source": "paper PMC5738360",
  "about": "“Engineering cell sensing and responses using a GPCR-coupled CRISPR-Cas system” (Nature Communications, 2017)",
  "assay_in_all_cases": "ChaCha beta-arrestin/TEV-release GFP reporter in HEK293T cells",
  "assay_type_in_all_cases": "cell-based",
  "key": {"TRHR": {"molecular_target": "T1, TRHR (Homo sapiens, UniProt P34981)", "T1 construct": "TRHR-V2-TEVp; with ARRB2 (ARRB2-TCS-dCas9-VPR)"}, "[1]": {"molecular_target": "T2, kappa opioid receptor DREADD (KORD) (Homo sapiens, UniProt P41145, D138N)", "T2 construct": "gene OPRK1; KORD-V2-TEVp; with ARRB2 (ARRB2-TCS-dCas9-VPR)", "T2 sequence (P41145 whole entry D138N)": "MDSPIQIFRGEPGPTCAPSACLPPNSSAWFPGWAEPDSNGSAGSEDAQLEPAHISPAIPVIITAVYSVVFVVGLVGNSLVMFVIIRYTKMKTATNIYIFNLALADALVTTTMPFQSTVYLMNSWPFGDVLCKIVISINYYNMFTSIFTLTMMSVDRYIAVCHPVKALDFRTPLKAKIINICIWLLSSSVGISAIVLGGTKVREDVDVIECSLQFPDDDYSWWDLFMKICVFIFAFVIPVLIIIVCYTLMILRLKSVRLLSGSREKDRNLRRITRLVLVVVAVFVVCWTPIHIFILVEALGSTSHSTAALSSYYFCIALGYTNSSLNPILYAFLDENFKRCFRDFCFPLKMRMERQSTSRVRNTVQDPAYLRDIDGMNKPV", "T2 sequence (P32121 whole entry, further chain)": "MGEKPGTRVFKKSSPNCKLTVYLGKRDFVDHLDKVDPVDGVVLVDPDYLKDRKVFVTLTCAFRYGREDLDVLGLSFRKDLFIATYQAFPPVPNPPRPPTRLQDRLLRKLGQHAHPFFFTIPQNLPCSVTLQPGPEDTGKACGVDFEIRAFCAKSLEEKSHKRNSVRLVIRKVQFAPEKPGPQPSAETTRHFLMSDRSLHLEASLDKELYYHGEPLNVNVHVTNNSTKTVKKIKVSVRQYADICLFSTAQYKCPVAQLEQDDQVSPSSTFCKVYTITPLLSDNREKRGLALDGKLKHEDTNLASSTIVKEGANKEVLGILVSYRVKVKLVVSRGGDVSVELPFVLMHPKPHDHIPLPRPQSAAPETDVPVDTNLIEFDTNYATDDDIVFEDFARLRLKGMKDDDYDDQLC"}, "LPAR1": {"molecular_target": "T3, LPAR1 (Homo sapiens, UniProt Q92633)", "T3 construct": "LPAR1-V2-TEVp; with ARRB2 (ARRB2-TCS-dCas9-VPR)", "T3 sequence (Q92633 whole entry)": "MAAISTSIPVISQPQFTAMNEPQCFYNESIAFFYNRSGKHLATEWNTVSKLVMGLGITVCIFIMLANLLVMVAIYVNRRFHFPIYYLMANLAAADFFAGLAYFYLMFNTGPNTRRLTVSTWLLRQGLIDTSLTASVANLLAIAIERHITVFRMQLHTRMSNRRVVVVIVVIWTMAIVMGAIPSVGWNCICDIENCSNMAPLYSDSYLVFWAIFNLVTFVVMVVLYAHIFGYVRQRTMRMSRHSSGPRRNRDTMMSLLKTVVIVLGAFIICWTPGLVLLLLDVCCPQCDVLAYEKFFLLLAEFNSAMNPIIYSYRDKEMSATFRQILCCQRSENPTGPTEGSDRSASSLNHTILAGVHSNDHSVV", "T3 sequence (P32121 whole entry partner)": "as the sequence (P32121 whole entry, further chain) above"}},
  "data": [
    {"smiles": "NC(=O)[C@@H]1CCCN1C(=O)[C@H](Cc1cnc[nH]1)NC(=O)[C@@H]1CCC(=O)N1", "note": "[thyrotropin-releasing hormone]", "values": [
      {"measurement": "ChaCha beta-arrestin/TEV-release GFP reporter in HEK293T cells", "setting": "TRHR", "result": "TRHR, which senses thyrotropin-releasing hormone"}
    ]},
    {"smiles": "COC(=O)[C@@H]1C[C@H](O)C(=O)[C@H]2[C@@]1(C)CC[C@H]1C(=O)O[C@H](c3ccoc3)C[C@]21C", "note": "[Salvinorin B]", "values": [
      {"measurement": "ChaCha beta-arrestin/TEV-release GFP reporter in HEK293T cells", "setting": "[1]", "result": "another evolved GPCR, the kappa opioid receptor DREADD (KORD), which senses Salvinorin B"}
    ]},
    {"smiles": "CCCCCCCC/C=C\\CCCCCCCC(=O)OC[C@@H](O)COP(=O)(O)O", "note": "[lysophosphatidic acid]", "values": [
      {"measurement": "ChaCha beta-arrestin/TEV-release GFP reporter in HEK293T cells", "setting": "LPAR1", "result": "LPAR1, which senses the fatty acid lysophosphatidic acid"}
    ]}
  ]
}
